Measurements: ChEMBL document CHEMBL4417633, “Inhibitory polypeptides specific to WNT inhibitors” (2017)
Activity calls are given as the source filed them. The calls are words filed in the database; no cut-off is given here. Where a SMILES comes first, the peptide text is derived from it.

Assays:
[1] = molecular target: T1, Dickkopf-related protein 1 (Homo sapiens) (UniProt O94907); test: Inhibition of biotin-labeled human recombinant DKK1 assessed as reduction in DKK1 interaction with LRP-6/Fc incubated overnight by chemiluminescence based Alpha-screen assay
T1 sequence (whole entry): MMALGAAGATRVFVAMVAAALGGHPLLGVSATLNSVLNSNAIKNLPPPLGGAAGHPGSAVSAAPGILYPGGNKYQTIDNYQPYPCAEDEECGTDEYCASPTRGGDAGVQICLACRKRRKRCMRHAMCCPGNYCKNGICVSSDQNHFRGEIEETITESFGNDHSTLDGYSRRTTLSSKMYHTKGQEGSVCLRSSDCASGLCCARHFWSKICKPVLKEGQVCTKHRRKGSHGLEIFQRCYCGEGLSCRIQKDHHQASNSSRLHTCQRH

[2] = molecular target: T2, Dickkopf WNT-signaling pathway inhibitor 1 (Rattus norvegicus) (UniProt A6I0Z0); test: Inhibition of biotin-labeled rat recombinant DKK1 assessed as reduction in DKK1 interaction with LRP-6/Fc incubated overnight by chemiluminescence based Alpha-screen assay
T2 sequence (whole entry): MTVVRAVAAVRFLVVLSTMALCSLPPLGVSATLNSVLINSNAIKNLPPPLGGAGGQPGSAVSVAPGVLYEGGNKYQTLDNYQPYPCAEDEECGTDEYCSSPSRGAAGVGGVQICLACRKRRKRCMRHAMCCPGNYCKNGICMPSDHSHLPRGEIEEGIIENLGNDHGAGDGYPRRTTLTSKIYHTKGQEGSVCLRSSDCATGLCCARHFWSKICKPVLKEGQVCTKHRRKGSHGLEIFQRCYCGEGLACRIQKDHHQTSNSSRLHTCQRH

[3] = molecular target: T3, Dickkopf-related protein 1 (Homo sapiens, UniProt O94907); test: Inhibition of human DKK1 in MC3T3E1/TetON-Wnt1/STF-Luc#5 cells assessed as DKK1 neutralizing activity by Wnt1-induced TCF/LEF luciferase reporter gene assay
T3 sequence (O94907 whole entry): T1 sequence (whole entry)

inhibition [1] | inhibition [2] | IC50 [3] | Compound
Active | Active | 0.8 to 3 nM | CSCC[C@H](NC(=O)[C@@H]1CCCN1C(=O)[C@H](Cc1ccc(O)cc1)NC(=O)[C@H](CS)NC(=O)[C@H](Cc1cnc[nH]1)NC(=O)[C@@H]1CCCN1C(=O)[C@H](Cc1cnc[nH]1)NC(=O)[C@H](Cc1ccc(O)cc1)NC(=O)[C@H](CCCNC(=N)N)NC(=O)[C@H](CS)NC(=O)[C@H](CCCCN)NC(=O)[C@H](Cc1ccccc1)NC(=O)[C@H](Cc1ccc(O)cc1)NC(=O)[C@H](CO)NC(=O)[C@H](C)NC(=O)[C@@H]1CCCN1C(=O)[C@@H](N)CS)C(=O)N[C@@H](CCC(=O)O)C(=O)N[C@@H](Cc1c[nH]c2ccccc12)C(=O)N[C@@H](CCCNC(=N)N)C(=O)N[C@@H](CS)C(=O)N[C@@H](CC(=O)O)C(=O)NCC(=O)N[C@@H](Cc1ccccc1)C(=O)N[C@@H](CO)C(=O)N[C@@H](CC(=O)O)C(=O)N[C@@H](CS)C(=O)N[C@H](C(=O)N[C@@H](CC(=O)O)C(=O)NCC(=O)N[C@@H](CO)C(=O)N[C@@H](CC(=O)O)C(=O)N[C@@H](CCC(=O)O)C(=O)N[C@@H](CCC(=O)O)C(=O)N[C@@H](C)C(=O)N[C@@H](CS)C(=O)NCC(=O)NCC(=O)NCC(=O)NCC(=O)O)C(C)C (H-CPASYFKCRYHPHCYPMEWRCDGFSDCVDGSDEEACGGGG-OH)
Active | Active | 0.8 to 3 nM | CSCC[C@H](NC(=O)[C@@H]1CCCN1C(=O)[C@H](Cc1ccc(O)cc1)NC(=O)[C@H](CS)NC(=O)[C@H](Cc1cnc[nH]1)NC(=O)[C@@H]1CCCN1C(=O)[C@H](Cc1cnc[nH]1)NC(=O)[C@H](CC(N)=O)NC(=O)[C@H](CCCNC(=N)N)NC(=O)[C@H](CS)NC(=O)[C@H](CCCNC(=N)N)NC(=O)[C@H](Cc1ccccc1)NC(=O)[C@H](Cc1ccc(O)cc1)NC(=O)[C@H](CO)NC(=O)[C@H](C)NC(=O)[C@@H]1CCCN1C(=O)[C@@H](N)CS)C(=O)N[C@@H](CCC(=O)O)C(=O)N[C@@H](Cc1c[nH]c2ccccc12)C(=O)N[C@@H](CCCNC(=N)N)C(=O)N[C@@H](CS)C(=O)N[C@@H](CC(=O)O)C(=O)NCC(=O)N[C@@H](Cc1ccccc1)C(=O)N[C@@H](CCC(=O)O)C(=O)N[C@@H](CC(=O)O)C(=O)N[C@@H](CS)C(=O)N[C@H](C(=O)N[C@@H](CC(=O)O)C(=O)NCC(=O)N[C@@H](CO)C(=O)N[C@@H](CC(=O)O)C(=O)N[C@@H](CCC(=O)O)C(=O)N[C@@H](CC(C)C)C(=O)N[C@@H](CC(=O)O)C(=O)N[C@@H](CS)C(=O)NCC(=O)NCC(=O)NCC(=O)NCC(=O)O)C(C)C (H-CPASYFRCRNHPHCYPMEWRCDGFEDCVDGSDELDCGGGG-OH)
Active | Active | 0.8 to 3 nM | CC[C@H](C)[C@H](NC(=O)[C@H](CS)NC(=O)[C@H](CC(=O)O)NC(=O)[C@@H]1CCCN1C(=O)[C@H](Cc1ccccc1)NC(=O)CNC(=O)[C@H](CC(=O)O)NC(=O)[C@H](CS)NC(=O)[C@H](CCCNC(=N)N)NC(=O)[C@H](Cc1c[nH]c2ccccc12)NC(=O)[C@H](CCC(=O)O)NC(=O)[C@H](CCSC)NC(=O)[C@@H]1CCCN1C(=O)[C@H](Cc1ccc(O)cc1)NC(=O)[C@H](CS)NC(=O)[C@H](Cc1cnc[nH]1)NC(=O)[C@@H]1CCCN1C(=O)[C@H](Cc1cnc[nH]1)NC(=O)[C@H](CC(N)=O)NC(=O)[C@H](CCCNC(=N)N)NC(=O)[C@H](CS)NC(=O)[C@@H]1CCCN1C(=O)[C@H](Cc1ccccc1)NC(=O)[C@H](Cc1ccc(O)cc1)NC(=O)[C@@H](NC(=O)[C@H](C)NC(=O)[C@@H]1CCCN1C(=O)[C@@H](N)CS)[C@@H](C)O)C(=O)N[C@@H](CC(=O)O)C(=O)N[C@@H](CCC(=O)O)C(=O)N[C@@H](CO)C(=O)N[C@@H](CC(=O)O)C(=O)N[C@@H](CCC(=O)O)C(=O)N[C@@H](CCSC)C(=O)NCC(=O)N[C@@H](CS)C(=O)NCC(=O)NCC(=O)NCC(=O)NCC(=O)O (H-CPATYFPCRNHPHCYPMEWRCDGFPDCIDESDEMGCGGGG-OH)
Active | Active | 0.8 to 3 nM | CC[C@H](C)[C@H](NC(=O)[C@H](CS)NC(=O)[C@H](CC(=O)O)NC(=O)[C@@H]1CCCN1C(=O)[C@H](Cc1ccccc1)NC(=O)CNC(=O)[C@H](CC(=O)O)NC(=O)[C@H](CS)NC(=O)[C@H](CCCNC(=N)N)NC(=O)[C@H](Cc1c[nH]c2ccccc12)NC(=O)[C@H](CCC(=O)O)NC(=O)[C@H](CCSC)NC(=O)[C@@H]1CCCN1C(=O)[C@H](Cc1ccc(O)cc1)NC(=O)[C@H](CS)NC(=O)[C@H](Cc1cnc[nH]1)NC(=O)[C@@H]1CCCN1C(=O)[C@H](Cc1cnc[nH]1)NC(=O)[C@H](CC(N)=O)NC(=O)[C@H](CCCNC(=N)N)NC(=O)[C@H](CS)NC(=O)[C@H](CCCCN)NC(=O)[C@H](Cc1ccccc1)NC(=O)[C@H](Cc1ccc(O)cc1)NC(=O)[C@H](CO)NC(=O)[C@H](C)NC(=O)[C@@H]1CCCN1C(=O)[C@@H](N)CS)C(=O)N[C@@H](CC(=O)O)C(=O)NCC(=O)N[C@@H](CO)C(=O)N[C@@H](CC(=O)O)C(=O)N[C@@H](CCC(=O)O)C(=O)N[C@H](C(=O)N[C@@H](C)C(=O)N[C@@H](CS)C(=O)NCC(=O)NCC(=O)NCC(=O)NCC(=O)O)[C@H](C)O
